In ChEMBL document CHEMBL1201862, “PubChem BioAssay data set” (2004):
Calls of active or inactive are those of the source.

What was measured:
[1] = target: Ras and Rab interactor 1/Tyrosine-protein kinase ABL1 (Homo sapiens, UniProt P00519+Q13671); format: functional;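 also: biochemical TR-FRET dose-response test measuring inhibition of binding between Rin1 and Abl proteins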
[2] = target: Heat shock protein HSP 90-alpha (Homo sapiens, UniProt P07900); format: functional, organism-based
[3] = viability of uninfected HEp-2 cells – cell-based, HTS, cytotoxicity control for RSV inhibitor project, dose response (AID 2410); format: functional; settings: human respiratory syncytial virus
[4] = system: CHO-K1; experiment: (§1) Counterscreen for antagonists of the orexin 1 receptor (OX1R; HCRTR1): Homogeneous time resolved fluorescence (HTRF)-based cell-based dose response assay to identify antagonists of the parental CHO-K1 cell line. [Related pubchem assays (depositor defined):AID434989, AID435008, AID463079, AID485270, AID492963, AID492964, AID492965, AID493232, AID504699, AID504701]; format: functional; settings: Cricetulus griseus
[5] = as §1, with “Fluorescence-based” for “Homogeneous time resolved fluorescence (HTRF)-based”, “cell-based high throughput” for “cell-based”, “CHO” for “CHO-K1”; format: functional
[6] = target: T1, Orexin/Hypocretin receptor type 1 (Homo sapiens, UniProt O43613); experiment: Homogeneous Time Resolved Fluorescence (HTRF)-based cell-based high throughput dose response assay for antagonists of the orexin 1 receptor (OX1R; HCRTR1). [Related pubchem assays (depositor defined):AID434989, AID435008, AID463079, AID485270, AID492963, AID492964, AID492965, AID493232, AID504717, AID504718]; format: functional
T1 sequence (O43613 whole entry): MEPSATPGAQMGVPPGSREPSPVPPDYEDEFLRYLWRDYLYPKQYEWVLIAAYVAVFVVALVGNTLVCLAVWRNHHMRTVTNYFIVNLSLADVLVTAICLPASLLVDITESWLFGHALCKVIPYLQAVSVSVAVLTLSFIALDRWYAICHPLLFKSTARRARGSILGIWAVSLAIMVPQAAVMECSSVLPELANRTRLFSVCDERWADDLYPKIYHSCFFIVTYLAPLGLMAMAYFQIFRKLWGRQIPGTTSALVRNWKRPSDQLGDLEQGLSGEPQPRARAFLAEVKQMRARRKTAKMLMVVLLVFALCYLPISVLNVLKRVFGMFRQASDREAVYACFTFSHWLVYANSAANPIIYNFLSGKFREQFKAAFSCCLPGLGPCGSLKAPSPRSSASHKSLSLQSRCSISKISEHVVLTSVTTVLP

[7] = target: T1, Orexin/Hypocretin receptor type 1; experiment: Fluorescence-based cell-based high throughput dose response assay for antagonists of the orexin 1 receptor (OX1R; HCRTR1). [Related pubchem assays (depositor defined):AID434989, AID435008, AID463079, AID485270, AID492963, AID492964, AID492965, AID493232, AID504717, AID504718]; format: functional
[8] = target: T2, Orexin receptor type 2 (Homo sapiens, UniProt O43614); experiment: Counterscreen assay for antagonists of the orexin 1 receptor (OX1R; HCRTR1): Fluorescence-based cell-based dose response assay for antagonists of the orexin 2 receptor (OX2R; HCRTR2), run by assay provider.; format: functional
T2 sequence (O43614 whole entry): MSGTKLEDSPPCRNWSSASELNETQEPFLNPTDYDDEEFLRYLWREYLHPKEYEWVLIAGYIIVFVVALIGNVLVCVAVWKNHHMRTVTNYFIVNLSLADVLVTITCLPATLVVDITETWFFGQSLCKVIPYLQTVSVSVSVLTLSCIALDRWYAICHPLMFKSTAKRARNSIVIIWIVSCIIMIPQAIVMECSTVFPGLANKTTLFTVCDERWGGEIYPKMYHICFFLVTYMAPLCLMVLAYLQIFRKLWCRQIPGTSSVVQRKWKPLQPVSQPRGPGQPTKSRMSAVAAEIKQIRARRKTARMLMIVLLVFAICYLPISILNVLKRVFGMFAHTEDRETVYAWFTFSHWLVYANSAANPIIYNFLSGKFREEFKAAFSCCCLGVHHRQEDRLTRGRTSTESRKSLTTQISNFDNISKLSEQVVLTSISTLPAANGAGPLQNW

[9] = target: T2, Orexin receptor type 2; experiment: Counterscreen assay for antagonists of the orexin 1 receptor (OX1R; HCRTR1): Homogeneous Time Resolved Fluorescence (HTRF)-based cell-based dose response assay for antagonists of the orexin 2 receptor (OX2R; HCRTR2), run by assay provider.; format: functional
[10] = cells
[11] = target: T3, Replicative DNA helicase DnaB (Mycobacterium tuberculosis, UniProt P9WMR3); experiment: DnaB intein splicing inhibitors, dose response, biochemical, cell-free fluorescence (AID 449749); format: functional
T3 sequence (P9WMR3 whole entry): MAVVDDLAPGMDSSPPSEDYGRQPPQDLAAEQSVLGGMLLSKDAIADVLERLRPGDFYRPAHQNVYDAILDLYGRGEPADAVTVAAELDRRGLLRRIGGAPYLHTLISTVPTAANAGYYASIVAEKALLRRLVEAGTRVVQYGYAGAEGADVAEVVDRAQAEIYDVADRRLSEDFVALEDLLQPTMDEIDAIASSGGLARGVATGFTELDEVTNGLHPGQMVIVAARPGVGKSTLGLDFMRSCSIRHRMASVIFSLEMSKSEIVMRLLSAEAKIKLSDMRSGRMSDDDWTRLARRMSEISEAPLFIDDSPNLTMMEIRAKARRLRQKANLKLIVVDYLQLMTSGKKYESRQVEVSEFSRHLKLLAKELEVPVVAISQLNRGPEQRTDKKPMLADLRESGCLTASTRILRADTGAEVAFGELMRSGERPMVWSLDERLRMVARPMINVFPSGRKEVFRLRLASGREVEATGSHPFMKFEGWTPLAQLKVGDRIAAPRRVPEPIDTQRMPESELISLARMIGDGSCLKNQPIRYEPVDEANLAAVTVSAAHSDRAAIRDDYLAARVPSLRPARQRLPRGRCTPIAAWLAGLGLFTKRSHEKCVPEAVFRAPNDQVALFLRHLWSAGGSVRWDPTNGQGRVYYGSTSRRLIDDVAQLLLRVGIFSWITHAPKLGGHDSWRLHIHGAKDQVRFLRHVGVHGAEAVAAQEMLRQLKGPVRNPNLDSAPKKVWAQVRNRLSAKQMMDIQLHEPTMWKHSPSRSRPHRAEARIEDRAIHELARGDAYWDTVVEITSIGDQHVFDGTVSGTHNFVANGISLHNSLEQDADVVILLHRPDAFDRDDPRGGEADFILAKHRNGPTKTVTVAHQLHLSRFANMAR

[12] = target: T4, Protein RecA (Mycobacterium tuberculosis, UniProt P9WHJ3); experiment: Fluorescence Cell-Free Homogeneous Dose Retest to Identify Inhibitors of RecA-Intein Splicing Activity. [Related pubchem assays (depositor defined):AID2097, AID2223, AID489010, AID492950]; format: functional
T4 sequence (P9WHJ3 whole entry): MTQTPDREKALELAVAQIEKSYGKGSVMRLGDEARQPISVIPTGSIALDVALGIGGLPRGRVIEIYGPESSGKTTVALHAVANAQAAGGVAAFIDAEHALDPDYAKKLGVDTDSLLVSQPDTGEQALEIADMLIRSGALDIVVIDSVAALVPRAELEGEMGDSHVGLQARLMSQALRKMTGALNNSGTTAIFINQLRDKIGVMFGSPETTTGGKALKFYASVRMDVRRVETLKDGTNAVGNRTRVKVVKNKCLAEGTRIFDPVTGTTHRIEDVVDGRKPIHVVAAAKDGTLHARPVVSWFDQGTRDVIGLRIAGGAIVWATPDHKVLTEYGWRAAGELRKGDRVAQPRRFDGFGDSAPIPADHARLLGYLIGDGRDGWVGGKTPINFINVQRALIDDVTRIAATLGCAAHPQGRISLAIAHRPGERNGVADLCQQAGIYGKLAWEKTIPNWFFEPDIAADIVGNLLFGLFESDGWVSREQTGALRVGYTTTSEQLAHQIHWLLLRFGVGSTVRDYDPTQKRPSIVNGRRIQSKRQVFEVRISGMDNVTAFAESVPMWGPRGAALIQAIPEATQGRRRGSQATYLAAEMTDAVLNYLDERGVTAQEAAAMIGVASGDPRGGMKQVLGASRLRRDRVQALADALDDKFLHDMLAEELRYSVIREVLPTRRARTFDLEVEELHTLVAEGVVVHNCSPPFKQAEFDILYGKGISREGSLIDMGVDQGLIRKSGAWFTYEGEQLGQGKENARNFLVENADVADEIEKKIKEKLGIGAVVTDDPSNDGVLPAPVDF

[13] = target: Genome polyprotein (dengue virus type 2, UniProt P29990); experiment: flavivirus cap methylation enzyme inhibition – biochemical, confirmation dose response, primary screen (AID 588689); format: functional
Chain of Genome polyprotein (P29990 2492-3391 limits assumed): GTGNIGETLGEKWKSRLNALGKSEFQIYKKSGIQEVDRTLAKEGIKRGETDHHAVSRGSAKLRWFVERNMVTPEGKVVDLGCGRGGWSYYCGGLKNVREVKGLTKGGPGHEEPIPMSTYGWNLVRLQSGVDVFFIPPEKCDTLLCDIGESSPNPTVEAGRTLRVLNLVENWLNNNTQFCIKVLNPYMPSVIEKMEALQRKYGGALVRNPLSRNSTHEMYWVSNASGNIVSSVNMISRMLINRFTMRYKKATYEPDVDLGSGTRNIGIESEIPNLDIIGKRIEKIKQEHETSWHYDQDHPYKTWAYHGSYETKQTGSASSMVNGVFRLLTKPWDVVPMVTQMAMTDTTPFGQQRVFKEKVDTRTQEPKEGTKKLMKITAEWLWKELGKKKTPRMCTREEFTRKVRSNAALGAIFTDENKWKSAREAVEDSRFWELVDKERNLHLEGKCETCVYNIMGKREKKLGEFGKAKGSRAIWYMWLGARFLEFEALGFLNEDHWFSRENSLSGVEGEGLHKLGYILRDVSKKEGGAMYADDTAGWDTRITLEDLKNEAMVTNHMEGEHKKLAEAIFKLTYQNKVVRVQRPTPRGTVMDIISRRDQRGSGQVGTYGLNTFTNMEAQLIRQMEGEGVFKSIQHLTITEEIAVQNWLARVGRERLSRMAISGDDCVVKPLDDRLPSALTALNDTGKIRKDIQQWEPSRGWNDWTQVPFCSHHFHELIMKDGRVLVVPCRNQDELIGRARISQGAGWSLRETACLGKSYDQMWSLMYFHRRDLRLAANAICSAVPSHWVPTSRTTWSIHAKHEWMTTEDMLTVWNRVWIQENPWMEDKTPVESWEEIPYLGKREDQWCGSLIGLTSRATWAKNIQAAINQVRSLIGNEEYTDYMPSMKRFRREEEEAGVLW

Chain of Ras and Rab interactor 1/Tyrosine-protein kinase ABL1 (P00519 whole entry): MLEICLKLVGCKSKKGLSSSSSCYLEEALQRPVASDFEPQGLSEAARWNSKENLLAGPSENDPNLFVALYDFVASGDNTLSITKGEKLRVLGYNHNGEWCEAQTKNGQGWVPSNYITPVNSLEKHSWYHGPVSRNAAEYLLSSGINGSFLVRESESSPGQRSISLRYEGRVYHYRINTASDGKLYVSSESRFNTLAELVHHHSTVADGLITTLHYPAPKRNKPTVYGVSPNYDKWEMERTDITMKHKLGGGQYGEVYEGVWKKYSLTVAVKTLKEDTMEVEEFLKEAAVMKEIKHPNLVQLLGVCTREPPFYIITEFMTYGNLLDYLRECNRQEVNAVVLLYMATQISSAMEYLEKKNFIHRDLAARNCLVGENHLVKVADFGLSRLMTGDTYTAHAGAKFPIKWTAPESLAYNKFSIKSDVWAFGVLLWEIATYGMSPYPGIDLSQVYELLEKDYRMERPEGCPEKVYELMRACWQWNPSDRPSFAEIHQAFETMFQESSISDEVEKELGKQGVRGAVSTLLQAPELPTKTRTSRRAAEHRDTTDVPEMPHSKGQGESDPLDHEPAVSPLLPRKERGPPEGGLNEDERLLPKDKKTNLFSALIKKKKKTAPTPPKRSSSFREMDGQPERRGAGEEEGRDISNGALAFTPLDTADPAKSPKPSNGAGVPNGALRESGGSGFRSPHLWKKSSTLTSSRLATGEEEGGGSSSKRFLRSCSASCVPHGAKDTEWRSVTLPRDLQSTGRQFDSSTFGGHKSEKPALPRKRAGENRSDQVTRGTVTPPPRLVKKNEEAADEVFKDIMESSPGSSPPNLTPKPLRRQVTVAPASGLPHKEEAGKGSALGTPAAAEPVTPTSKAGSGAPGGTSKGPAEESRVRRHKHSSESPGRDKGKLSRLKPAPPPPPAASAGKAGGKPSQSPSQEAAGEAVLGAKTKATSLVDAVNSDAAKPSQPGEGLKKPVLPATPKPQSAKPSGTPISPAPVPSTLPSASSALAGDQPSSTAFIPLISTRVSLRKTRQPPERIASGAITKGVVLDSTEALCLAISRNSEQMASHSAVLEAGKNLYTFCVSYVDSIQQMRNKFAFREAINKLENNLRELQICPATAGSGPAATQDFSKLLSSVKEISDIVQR
Chain of Ras and Rab interactor 1/Tyrosine-protein kinase ABL1 (Q13671 whole entry): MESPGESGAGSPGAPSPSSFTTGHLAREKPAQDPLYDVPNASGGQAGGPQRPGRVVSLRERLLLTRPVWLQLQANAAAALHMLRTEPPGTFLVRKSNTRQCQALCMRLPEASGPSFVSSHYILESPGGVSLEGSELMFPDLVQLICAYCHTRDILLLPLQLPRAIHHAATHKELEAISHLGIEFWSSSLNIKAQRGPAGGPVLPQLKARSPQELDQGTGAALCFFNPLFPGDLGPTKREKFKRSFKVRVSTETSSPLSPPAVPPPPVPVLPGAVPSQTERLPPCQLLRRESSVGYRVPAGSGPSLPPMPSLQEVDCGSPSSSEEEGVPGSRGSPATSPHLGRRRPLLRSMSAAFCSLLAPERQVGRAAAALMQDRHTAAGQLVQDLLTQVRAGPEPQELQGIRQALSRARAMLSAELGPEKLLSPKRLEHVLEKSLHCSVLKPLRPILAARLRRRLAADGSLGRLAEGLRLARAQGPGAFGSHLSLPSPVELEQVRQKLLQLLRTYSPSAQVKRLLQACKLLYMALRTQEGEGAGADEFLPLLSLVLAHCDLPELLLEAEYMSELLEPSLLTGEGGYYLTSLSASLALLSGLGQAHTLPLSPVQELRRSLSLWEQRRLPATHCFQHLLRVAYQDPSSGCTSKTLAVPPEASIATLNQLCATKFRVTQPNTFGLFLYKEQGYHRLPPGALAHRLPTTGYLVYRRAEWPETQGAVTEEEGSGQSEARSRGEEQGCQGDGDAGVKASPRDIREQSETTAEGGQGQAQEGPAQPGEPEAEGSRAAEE

Cc1ccccc1CN1C[C@@H]2C[C@@H](c3ccc4nsnc4c3)N3CCC[C@@]23C1=O
IC50 [1]: 34.1 µM (inactive)

COc1ccc2c(c1)C=C(C(=O)NCc1ccc(Cl)cc1)CO2
AC50 [2]: 69.4 µM (active)

COc1ccc(CN2CC[C@H]3C=CC[C@@H](C(=O)Nc4ccc(Cl)c(C(F)(F)F)c4)[C@H]3C2=O)cc1OC
CC50 [3]: 42.4 µM (active)
IC50 [4]: > 66.2 µM (inactive)
IC50 [5]: > 49.8 µM (inactive)
IC50 [6]: 0.071 µM (active)
IC50 [7]: 3.22 µM (active)
IC50 [8]: > 88.8 µM (inactive)
IC50 [9]: > 50 µM (inactive)
IC50 [10]: 23.6 µM (active)

CC(C)(O)c1cc2ccc(C#Cc3ccsc3)cc2c(=O)o1
IC50 [4]: > 66.2 µM (inactive)
IC50 [5]: > 49.7 µM (inactive)
IC50 [6]: 4.32 µM (active)
IC50 [7]: 9.4 µM (active)
IC50 [8]: > 88.8 µM (inactive)
IC50 [9]: > 50 µM (inactive)

COC(=O)c1cccc(N2C(=O)C(Cl)=C(N3CCOCC3)C2=O)c1
AC50 [11]: 4.2 µM (active)
EC50 [12]: 1.93 µM (active)
IC50 [13]: 23.6 µM (active)
